# Laboratory results from ChEMBL document CHEMBL5653627 (J Neurochem, 2017).
# Active and inactive are the calls of the source. The rule behind the calls is not given here.
# Tests used:
# SMA-497 [1] = test: Induction of cell cycle arrest in mouse SMA-497 cells assessed as accumulation at sub G1 phase at 0.1 uM incubated for 72 hrs by propidium iodide/RNase staining based flow cytomtery (Rvb= 2%); type: functional
# SMA-560 [2] = test: Antitumor activity against mouse SMA-560 cells xenografted in VM/Dk mouse assessed as decrease in tumor volume at 100 mg/kg,po daily by H and E staining based microscopy; type: functional, organism-based
# SMA-497 [3] = test: Induction of apoptosis in mouse SMA-497 cells assessed as late apoptotic cells at 0.1 uM incubated for 72 hrs by Annexin V-FITC/PI staining based flow cytometric analysis (reference value: 1.86%); type: functional
# SMA-497 [4] = test: Anti-clonogenicic activity in mouse SMA-497 cells assessed as reduction in colony formation at 0.1 to 1 uM preincubated for 6 hrs followed by temozolomide addition and measured after 10 days by MTT based clonogenic survival assay; type: functional, cell-based; details: dose 0.1-1 µM, time 246.0 hrs
# SMA-497 [5] = test: Anti-clonogenicic activity in mouse SMA-497 cells assessed as reduction in colony formation at 0.1 to 1 uM preincubated for 6 hrs followed by 1 to 9 Gy irradiation with and measured after 10 days by MTT based clonogenic survival assay; type: functional, cell-based; details: dose 0.1-1 µM, time 246.0 hrs
# SMA-540 [6] = test: Antitumor activity against mouse SMA-540 cells xenografted in VM/Dk mouse assessed as tumor cell proliferation at 100 mg/kg,po daily by Ki67 staining based immunohistochemistry analysis; type: functional, organism-based
# SMA-560 [7] = test: In vivo inhibition of TIE-2 in VM/Dk mouse xenografted with mouse SMA-560 cells assessed as decrease in TIE-2 expression in brain blood vessels at 100 mg/kg,po daily by immunohistochemistry analysis; type: functional, organism-based
# [8] = Toxicity in VM/Dk mouse xenografted with mouse SMA-560 cells assessed as survival rate at 100 mg/kg,po daily with 12 Gy irradition after 2days of treatment initiation (Rvb=30%); type: organism-based; details: in vivo, 48 h
# GL261 [9] = test: Antitumor activity against mouse GL261 cells xenografted in C57Bl/6 mouse assessed as decrease in tumor volume at 100 mg/kg,po daily by H and E staining based microscopy; type: functional, organism-based
# GL261 [10] = test: In vivo inhibition of TIE-2 in C57Bl/6 mouse xenografted with mouse GL261 cells assessed as decrease in TIE-2 expression in brain blood vessels at 100 mg/kg,po daily by immunohistochemistry analysis; type: functional, organism-based
# GL261 [11] = test: Antitumor activity against mouse GL261 cells xenografted in C57Bl/6 mouse assessed as increase in number of tumor-infiltrating CD11b positive monocytes/microglia in tumor at 100 mg/kg,po daily by immunohistochemistry analysis; type: functional, organism-based
# SMA-560 [12] = test: Induction of cell cycle arrest in mouse SMA-560 cells assessed as accumulation at S phase at 0.1 uM incubated for 72 hrs by propidium iodide/RNase staining based flow cytomtery (Rvb= 2%); type: functional
# SMA-497 [13] = test: Induction of cell cycle arrest in mouse SMA-497 cells assessed as accumulation at S phase at 0.1 uM incubated for 72 hrs by propidium iodide/RNase staining based flow cytomtery (Rvb= 8%); type: functional
# SMA-560 [14] = test: Antitumor activity against mouse SMA-560 cells xenografted in VM/Dk mouse assessed as decrease in number of CD31-positive intra-tumoral vessels in tumor at 100 mg/kg,po daily with 12 Gy irradition after 2days of treatment initiation by immunohistochemistry analysis; type: functional, organism-based
# [15] = Toxicity in VM/Dk mouse xenografted with mouse SMA-540 cells assessed as survival rate at 100 mg/kg,po daily (Rvb=>60%); type: organism-based; details: in vivo
# Angiopoietin-1 receptor = Angiopoietin-1 receptor (Homo sapiens, UniProt Q02763); test: Inhibition of TIE2 autophosphorylation in human HUVEC cells by Western blot analysis; type: cell-based
# Angiopoietin-1 receptor, sequence (Q02763 whole entry): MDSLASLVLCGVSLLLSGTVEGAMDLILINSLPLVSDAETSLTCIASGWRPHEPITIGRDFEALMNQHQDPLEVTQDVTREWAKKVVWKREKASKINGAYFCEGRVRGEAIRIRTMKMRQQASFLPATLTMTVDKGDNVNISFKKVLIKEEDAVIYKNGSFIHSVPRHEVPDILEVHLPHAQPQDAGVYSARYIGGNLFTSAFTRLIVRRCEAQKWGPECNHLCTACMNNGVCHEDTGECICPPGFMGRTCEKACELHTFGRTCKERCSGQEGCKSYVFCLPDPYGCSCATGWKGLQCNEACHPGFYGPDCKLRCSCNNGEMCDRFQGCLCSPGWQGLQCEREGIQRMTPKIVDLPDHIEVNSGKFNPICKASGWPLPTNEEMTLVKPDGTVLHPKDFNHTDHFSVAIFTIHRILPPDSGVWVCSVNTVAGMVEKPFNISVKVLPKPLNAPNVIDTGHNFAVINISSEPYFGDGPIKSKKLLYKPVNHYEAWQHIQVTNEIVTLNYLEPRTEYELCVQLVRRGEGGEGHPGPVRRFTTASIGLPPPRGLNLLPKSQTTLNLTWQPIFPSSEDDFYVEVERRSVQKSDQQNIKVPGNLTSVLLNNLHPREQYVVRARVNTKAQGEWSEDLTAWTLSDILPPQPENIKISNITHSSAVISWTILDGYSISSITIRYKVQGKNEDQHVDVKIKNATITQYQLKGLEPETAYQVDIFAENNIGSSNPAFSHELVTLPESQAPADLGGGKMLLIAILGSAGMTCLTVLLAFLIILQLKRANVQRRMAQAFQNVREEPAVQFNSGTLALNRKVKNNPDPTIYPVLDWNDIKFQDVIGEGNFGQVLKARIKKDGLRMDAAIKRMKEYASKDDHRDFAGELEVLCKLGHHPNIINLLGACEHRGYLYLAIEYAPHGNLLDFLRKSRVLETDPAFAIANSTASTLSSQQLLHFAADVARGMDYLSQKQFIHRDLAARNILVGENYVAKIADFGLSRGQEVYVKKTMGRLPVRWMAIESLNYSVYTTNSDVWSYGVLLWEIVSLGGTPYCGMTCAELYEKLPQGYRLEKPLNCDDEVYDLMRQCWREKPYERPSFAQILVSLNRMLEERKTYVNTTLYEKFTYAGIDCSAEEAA
# SMA-560 [16] = test: Antitumor activity against mouse SMA-560 cells xenografted in VM/Dk mouse assessed as increase in number of tumor-infiltrating CD11b positive monocytes/microglia in tumor at 100 mg/kg,po daily with 12 Gy irradition after 2days of treatment initiation by immunohistochemistry analysis; type: functional, organism-based
# SMA-560 [17] = test: Induction of apoptosis in mouse SMA-560 cells assessed as early apoptotic cells at 0.1 uM incubated for 72 hrs by Annexin V-FITC/PI staining based flow cytometric analysis (reference value: 0.0056%); type: functional
# SMA-560 [18] = test: Antitumor activity against mouse SMA-560 cells xenografted in VM/Dk mouse assessed as decrease in tumor cell proliferation at 100 mg/kg,po daily with 12 Gy irradition after 2days of treatment initiation by Ki67 staining based immunohistochemistry analysis; type: functional, organism-based
# SMA-540 [19] = test: Antitumor activity against mouse SMA-540 cells xenografted in VM/Dk mouse assessed as increase in number of tumor-infiltrating CD11b positive monocytes/microglia in tumor at 100 mg/kg,po daily by immunohistochemistry analysis; type: functional, organism-based
# Mus musculus = test: In vivo inhibition of Angiopoietin-1 stimulated TIE2 autophosphorylation in lungs of CB17/scid mouse at 25 to 100 mg/kg,po for 3 hrs with angiopoietin-1 stimulation during last 15 mins treatment by immunoblot analysis; type: functional, organism-based; details: Lung, dose 25-100 mg/kg
# SMA-560 [20] = test: Antitumor activity against mouse SMA-560 cells xenografted in VM/Dk mouse assessed as increase in number of tumor-infiltrating CD11b positive monocytes/microglia in tumor at 100 mg/kg,po daily by immunohistochemistry analysis; type: functional, organism-based
# SMA-560 [21] = test: Antitumor activity against mouse SMA-560 cells xenografted in VM/Dk mouse assessed as decrease in number of CD31-positive intra-tumoral vessels in tumor at 100 mg/kg,po daily by immunohistochemistry analysis; type: functional, organism-based
# SMA-497 [22] = test: Induction of cell cycle arrest in mouse SMA-497 cells assessed as accumulation at G0/G1 phase at 0.1 uM incubated for 72 hrs by propidium iodide/RNase staining based flow cytomtery (Rvb= 76%); type: functional
# SMA-497 [23] = test: Induction of apoptosis in mouse SMA-497 cells assessed as live cells at 0.1 uM incubated for 72 hrs by Annexin V-FITC/PI staining based flow cytometric analysis (reference value: 83.4%); type: functional
# GL261 [24] = test: Antitumor activity against mouse GL261 cells xenografted in C57Bl/6 mouse assessed as decrease in number of CD31-positive intra-tumoral vessels in tumor at 100 mg/kg,po daily by immunohistochemistry analysis; type: functional, organism-based
# GL261 [25] = test: Cytotoxicity against mouse GL261 cells assessed as reduction in metabolic activity at 0.001 to 100 uM incubated for 72 hrs by MTT assay; type: functional, cell-based; details: dose 0.001-100 µM
# [26] = Toxicity in VM/Dk mouse xenografted with mouse SMA-497 cells assessed as survival rate at 100 mg/kg,po daily with 12 Gy irradition after 2days of treatment initiation (Rvb=17%); type: organism-based; details: in vivo, 48 h
# SMA-560 [27] = test: Induction of cell cycle arrest in mouse SMA-560 cells assessed as accumulation at G2/M phase at 0.1 uM incubated for 72 hrs by propidium iodide/RNase staining based flow cytomtery (Rvb= 25%); type: functional
# SMA-540 [28] = test: Antitumor activity against mouse SMA-540 cells xenografted in VM/Dk mouse assessed as decrease in number of CD31-positive intra-tumoral vessels in tumor at 100 mg/kg,po daily by immunohistochemistry analysis; type: functional, organism-based
compound,measurement,setting,value
Cc1cc(C)c(-n2ccn3nc(-c4cccnc4)cc23)cc1NC(=O)c1cc(C#N)cc(S(F)(F)(F)(F)F)c1 [BAY-826],Activity,SMA-497 [1],4%
same,Activity,SMA-560 [2],inactive
same,Activity,SMA-497 [3],0.3%
same,Activity,SMA-497 [4],inactive
same,Activity,SMA-497 [5],inactive
same,Activity,SMA-540 [6],inactive
same,inhibition,SMA-560 [7],Active
same,Survival,[8],33.5%
same,Activity,GL261 [9],inactive
same,inhibition,GL261 [10],Active
same,Activity,GL261 [11],inactive
same,Activity,SMA-560 [12],3%
same,Activity,SMA-497 [13],11%
same,Activity,SMA-560 [14],Active
same,Survival,[15],> 60%
same,EC50,Angiopoietin-1 receptor,1.3 nM
same,Activity,SMA-560 [16],Active
same,Activity,SMA-560 [17],0%
same,Activity,SMA-560 [18],inactive
same,Activity,SMA-540 [19],Active
same,inhibition,Mus musculus,Active
same,Activity,SMA-560 [20],inactive
same,Activity,SMA-560 [21],Active
same,Activity,SMA-497 [22],66%
same,Activity,SMA-497 [23],91.4%
same,Activity,GL261 [24],Active
same,Activity,GL261 [25],inactive
same,Survival,[26],17%
same,Activity,SMA-560 [27],28%
same,Activity,SMA-540 [28],inactive
